Measurements reported in article PMC6149869 (OncoTargets and therapy, 2018).

Legend:
[1] = tested on: MDR-1; test: qPCR expression of PXR downstream gene MDR-1 in MHCC97-H cells; conditions: human
[2] = tested on: MHCC97-H cells; test: Intrahepatic HCC tumor growth model; format: in vivo, nude mice; conditions: sorafenib 2 mg/kg oral; Figure 4
[3] = Clearance of sorafenib in cultured MHCC97-H cells; format: in vitro ADME; conditions: human, Half-life (t1/2 value) of Sor, 1 µmol/L sorafenib
[4] = tested on: MHCC97-H cells; test: Subcutaneous HCC tumor growth model; format: in vivo, nude mice; conditions: sorafenib 2 mg/kg oral; Figure 3

Row | EC50 at 24 h [1] [nM] | half-life at 1 µmol/L ([3]; miR-140-3p) [h] | half-life at 1 µmol/L ([3]; miR-140-3p + inhibitor) [h] | SMILES | Effect on intrahepatic growth of MHCC97-H cells in livers of nude mice [2] | Effect on subcutaneous growth of HCC cells in nude mice [4]
1 | 1810 ± 290 |  |  | CO[C@H]1/C=C/O[C@@]2(C)Oc3c(C)c(O)c4c(O)c(c(/C=N/N5CCN(C)CC5)c(O)c4c3C2=O)NC(=O)/C(C)=C\C=C\[C@H](C)[C@H](O)[C@@H](C)[C@@H](O)[C@@H](C)[C@H](OC(C)=O)[C@@H]1C [rifampicin, Rifampicin] |  | 
2 |  | 21.6 ± 5.3 | 14.7 ± 5.87 | CNC(=O)c1cc(Oc2ccc(NC(=O)Nc3ccc(Cl)c(C(F)(F)F)c3)cc2)ccn1 [Sor, sorafenib] | significantly inhibit the intrahepatic growth of MHCC97-H cells | significantly inhibit the subcutaneous growth of HCC cells
